Experimental data reported in patent US8809550B2, “Androgen receptor antagonists and uses thereof” (priority 2009, dated 2014).

Assays:
[1] = tested on: 22RV1 cells; experiment: Cell viability assay, 22RV1 cells; assay type: cell-based, human; conditions: Homo sapiens, 22Rv1, 48 h, read-out: Inhibition of cell viability, 22RV1 % inhibition at 2.5 uM
Description: (§1) LNCaP and 22RV1 cells were maintained in RPMI 1640 medium supplemented with 10% fetal bovine serum (FBS), 100 U/mL penicillin, 100 μg/mL streptomycin, and 0.25 μg/mL amphotericin B, splitting cells when they reached 80-90% confluence. In order to test compounds, 10,000 cells/well were plated in 96 cell culture plates using 100 ul/well plating medium, cultured overnight at 37° C. in a cell culture incubator. After carefully remove plating medium, 80 ul/well of pre-warmed assay medium was added, followed by adding 10 ul/well test compounds or bicalutamide (final concentration from 20 uM to 0.1 uM), incubated at 37° C. for 30 minutes, then adding 10 ul/well freshly prepared Methyltrienolone (R1881, AR agonist) (final concentration 1 ng/ml) to each well, incubate at 37° C. for 48-hour. At the end of incubation, 20 μl MTT (2.5 mg/ml in PBS) was added to each well, and the cells were further incubated for 2 h at 37 C to allow a complete reaction between the dye and the enzyme mitochondrial dehydrogenase in the viable cells. After removal of the residual dye and medium, 100 μl dimethylsulfoxide was added to each well, and the absorbance at 570 nm was measured with an microplate reader. The fold induction over background by 1 nM R1881 in the absence of test compounds is standardized as 100% and experimental result is expressed as percentage of inhibition by testing compounds at 2.5 micromolar (uM).

[2] = tested on: Prostate-specific Antigen (PSA) production in 22RV1 cells; experiment: PSA assay: inhibition of PSA production in 22RV1 cells (ELISA); assay type: cell-based; conditions: Homo sapiens, 72 h, R1881 1 ng/ml, three days
Description: (§2) PSA Assay (Inhibition Test of the Compound of the Present Invention on Prostate-Specific Antigen (PSA) Production in Various Prostate Cancer Cells)
Androgen dependent LNCaP and 22RV1 cells were purchased from the American Type Culture Collection (ATCC, Manassas, Va.). These cells were grown in RPMI 1640 medium supplemented with 10% fetal bovine serum (FBS), 100 U/mL penicillin, 100 μg/mL streptomycin, and 0.25 μg/mL amphotericin B. The cells were maintained at 37° C. and 5% CO2. LNCaP cells between passage 20 and 35, and 22RV1 cells between passage 30 and 50 were used for experiments. LNCaP is a hormone sensitive cell line, while 22RV1 is a hormone refractory prostate cancer cell line, which derived from a primary prostate tumor. This cell line was isolated from a xenograft (CWR22R-2152) that was serially propagated in mice after castration-induced regression and relapse of the parental, androgen-dependent CWR xenograft. For the PSA assay, human prostate cancer cells LNCaP or 22RV1 were seeded in a 96-well plate at a concentration of 5000 cells/100 μl/well. On the following day, Methyltrienolone (R1881, AR agonist) (final concentration 1 ng/ml), test compounds or bicalutamide (Casodex®, AstraZeneca) (final concentration 0.005 to 20 μM) were added. Three days after the addition, the concentration of PSA in the supernatant of the culture solution was measured by ELISA. ELISAs for human PSA in culture medium were performed using the ultra-sensitive assay procedure and reagents in the Active™ PSA assay kit (Diagnostic Systems Laboratories Inc., Webster, Tex.). Culture medium and standards (200 μl/well) were incubated in antibody-coated plates for 2 h at room temperature on a Titer plate shaker at 500-600 rpm. Wells were then washed five times. The HRP conjugate was diluted 1:20 with assay buffer, and 100 μl was added to all wells. The plates were incubated for 30 min at room temperature on the shaker and washed as before, and 100 μl TMB (3,3′,5,5′-tetramethylbenzidine, 0.4 g/l) was added. The plates were incubated for 10 min on the shaker, and the reaction was terminated with 100 μl stop solution. The plates were read using a plate reader at 450 nm with a 650 nm reference filter. PSA levels were normalized for differences in growth of LNCaP or 22RV1 cells following various treatments as determined by the MTS assay. IC50 of PSA was calculated based on a seven point assay (concentrations of tested compound) and expressed as micromolar (uM). […] ND means not determined

[3] = tested on: LNCaP cells; experiment: Cell viability assay, LNCaP cells; assay type: cell-based; conditions: Homo sapiens, LNCaP, 48 h, read-out: Inhibition of cell viability, LNCaP % inhibition at 2.5 uM
Description: as §1

[4] = tested on: C57BL/6 mice; experiment: C57BL/6 mouse hair growth model; assay type: in vivo
Source text: C57BL/6 Mouse Hair Growth Model
Six-to 8-wk-old male C57BL/6 mice in the telogen stage of the hair cycle, weighing 15-20 g, were purchased and housed in community cages under standard conditions. The growth phase of the hair cycle (anagen) was induced in the back skin of mice with all follicles in the resting phase of the hair cycle (telogen; as judged from their homogeneously pink skin color) by being shaved on the lower back using an electric shaver under mild anesthesia. Only mice in the telogen phase (pink skin) were used in the studies. Twenty microliters of test article at two concentrations in propylene glycol/ethanol (30:70, v/v) or the vehicle control was topically applied to the shaved lower back of the mice to cover an area of approximately 1 cm^2 (20 uL/cm^2). Five mice were used in each group. The mice were treated with the compound by topical application twice daily (BID) for 4 weeks. Local irritation was recorded daily before each application, and hair growth scores were recorded twice per week. The scoring system for mouse hair growth was 0 to 4: 0=no hair growth, pink skin color; 1=skin color in shaved area changes from pink to gray without visible hair growth, indicating the onset of anagen; 2=skin color in shaved area is black with tiny hairs; 3=short black hair in shaved area; and 4=hair in shaved area is almost close to surrounding area. […]

[5] = tested on: Prostate-specific Antigen (PSA) production in LNCaP cells; experiment: PSA assay: inhibition of PSA production in LNCaP cells (ELISA); assay type: cell-based; conditions: Homo sapiens, 72 h, R1881 1 ng/ml, three days, seven point assay
Description: as §2
Androgen dependent LNCaP and 22RV1 cells were purchased from the American Type Culture Collection (ATCC, Manassas, Va.). These cells were grown in RPMI 1640 medium supplemented with 10% fetal bovine serum (FBS), 100 U/mL penicillin, 100 μg/mL streptomycin, and 0.25 μg/mL amphotericin B. The cells were maintained at 37° C. and 5% CO2. LNCaP cells between passage 20 and 35, and 22RV1 cells between passage 30 and 50 were used for experiments. LNCaP is a hormone sensitive cell line, while 22RV1 is a hormone refractory prostate cancer cell line, which derived from a primary prostate tumor. This cell line was isolated from a xenograft (CWR22R-2152) that was serially propagated in mice after castration-induced regression and relapse of the parental, androgen-dependent CWR xenograft. For the PSA assay, human prostate cancer cells LNCaP or 22RV1 were seeded in a 96-well plate at a concentration of 5000 cells/100 μl/well. On the following day, Methyltrienolone (R1881, AR agonist) (final concentration 1 ng/ml), test compounds or bicalutamide (Casodex®, AstraZeneca) (final concentration 0.005 to 20 μM) were added. Three days after the addition, the concentration of PSA in the supernatant of the culture solution was measured by ELISA. ELISAs for human PSA in culture medium were performed using the ultra-sensitive assay procedure and reagents in the Active™ PSA assay kit (Diagnostic Systems Laboratories Inc., Webster, Tex.). Culture medium and standards (200 μl/well) were incubated in antibody-coated plates for 2 h at room temperature on a Titer plate shaker at 500-600 rpm. Wells were then washed five times. The HRP conjugate was diluted 1:20 with assay buffer, and 100 μl was added to all wells. The plates were incubated for 30 min at room temperature on the shaker and washed as before, and 100 μl TMB (3,3′,5,5′-tetramethylbenzidine, 0.4 g/l) was added. The plates were incubated for 10 min on the shaker, and the reaction was terminated with 100 μl stop solution. The plates were read using a plate reader at 450 nm with a 650 nm reference filter. PSA levels were normalized for differences in growth of LNCaP or 22RV1 cells following various treatments as determined by the MTS assay. IC50 of PSA was calculated based on a seven point assay (concentrations of tested compound) and expressed as micromolar (uM). Results on 22RV1 cells are shown as percent inhibition at 2 micromolar (uM). ND means not determined

SMILES: CNC(=O)c1ccc(N2C(=S)N(c3ccc(C#N)c(C(F)(F)F)c3F)C(=O)C2(C)C)cc1F [Example 12, 4-[3-(4-Cyano-2-fluoro-3-trifluoromethyl-phenyl)-5,5-dimethyl-4-oxo-2-thioxo-imidazolidin-1-yl]-2-fluoro-N-methyl-benzamide]
- cytotoxicity at 2.5 µM [1]: 61%
- inhibition at 2 µM [2]: 71%
- cytotoxicity at 2.5 µM [3]: 86%
- hair growth stimulation ([4]; topical BID for 4 weeks, 0.2% and 1% in 30% propylene glycol and 70% ethanol, FIG. 1): stimulated hair growth in dose dependent patterns
- in vivo activity for promoting hair growth compared to RU-58841 ([4]; topical, compared to reference androgen receptor antagonist RU-58841): better in vivo activity for promoting hair growth
- IC50 [5]: 280 nM
